In PMC4076210, “Discovery of Novel AKT Inhibitors with Enhanced Anti-Tumor Effects in Combination with the MEK Inhibitor” (PLoS ONE, 2014):
Where two headings read alike, the source gives them in different places.

How the values were obtained:
Experiment in all cases: Kinase panel
Format in all cases: biochemical
Blk(m) = target: T1, Blk(m) (Mus musculus, UniProt P16277)
T1 construct: purchased Millipore KinaseProfiler

Bmx(h) = target: T2, Bmx(h) (Homo sapiens, UniProt P51813)
T2 construct: purchased Millipore KinaseProfiler
T2 sequence (P51813 1-675): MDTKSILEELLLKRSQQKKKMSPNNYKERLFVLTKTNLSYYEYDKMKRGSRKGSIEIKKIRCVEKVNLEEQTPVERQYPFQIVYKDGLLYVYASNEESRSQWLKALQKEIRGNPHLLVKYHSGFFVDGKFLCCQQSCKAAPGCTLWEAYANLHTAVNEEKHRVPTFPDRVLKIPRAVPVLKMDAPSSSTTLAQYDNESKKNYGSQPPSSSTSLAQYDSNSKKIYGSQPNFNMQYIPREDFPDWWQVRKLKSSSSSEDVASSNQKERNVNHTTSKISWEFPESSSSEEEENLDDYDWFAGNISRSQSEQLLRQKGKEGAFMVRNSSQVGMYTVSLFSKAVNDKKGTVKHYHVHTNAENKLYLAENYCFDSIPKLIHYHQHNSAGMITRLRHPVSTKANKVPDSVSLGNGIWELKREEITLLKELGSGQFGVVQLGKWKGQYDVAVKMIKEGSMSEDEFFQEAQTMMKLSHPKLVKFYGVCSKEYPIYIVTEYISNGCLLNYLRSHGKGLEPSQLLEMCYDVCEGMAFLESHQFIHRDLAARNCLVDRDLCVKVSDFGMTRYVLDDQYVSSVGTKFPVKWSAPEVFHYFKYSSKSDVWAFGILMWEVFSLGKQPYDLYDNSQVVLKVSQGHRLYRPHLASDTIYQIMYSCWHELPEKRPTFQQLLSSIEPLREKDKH

DRAK1(h) = target: T3, DRAK1(h) (Homo sapiens, UniProt Q9UEE5)
T3 construct: purchased Millipore KinaseProfiler
T3 sequence (Q9UEE5 1-414): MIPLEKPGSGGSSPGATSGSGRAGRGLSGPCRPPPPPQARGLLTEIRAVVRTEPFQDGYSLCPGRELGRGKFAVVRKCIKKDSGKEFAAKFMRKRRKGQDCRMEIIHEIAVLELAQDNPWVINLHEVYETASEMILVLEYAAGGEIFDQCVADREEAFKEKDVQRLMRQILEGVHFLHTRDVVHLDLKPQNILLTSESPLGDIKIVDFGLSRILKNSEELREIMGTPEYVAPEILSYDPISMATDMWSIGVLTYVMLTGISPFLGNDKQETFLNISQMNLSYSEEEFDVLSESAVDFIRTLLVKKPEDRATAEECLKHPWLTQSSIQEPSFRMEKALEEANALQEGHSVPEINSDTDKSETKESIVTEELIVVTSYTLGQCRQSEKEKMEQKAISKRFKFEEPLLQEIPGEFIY

Fgr(h) = target: T4, Fgr(h) (Homo sapiens, UniProt P09769)
T4 construct: purchased Millipore KinaseProfiler
T4 sequence (P09769 whole entry): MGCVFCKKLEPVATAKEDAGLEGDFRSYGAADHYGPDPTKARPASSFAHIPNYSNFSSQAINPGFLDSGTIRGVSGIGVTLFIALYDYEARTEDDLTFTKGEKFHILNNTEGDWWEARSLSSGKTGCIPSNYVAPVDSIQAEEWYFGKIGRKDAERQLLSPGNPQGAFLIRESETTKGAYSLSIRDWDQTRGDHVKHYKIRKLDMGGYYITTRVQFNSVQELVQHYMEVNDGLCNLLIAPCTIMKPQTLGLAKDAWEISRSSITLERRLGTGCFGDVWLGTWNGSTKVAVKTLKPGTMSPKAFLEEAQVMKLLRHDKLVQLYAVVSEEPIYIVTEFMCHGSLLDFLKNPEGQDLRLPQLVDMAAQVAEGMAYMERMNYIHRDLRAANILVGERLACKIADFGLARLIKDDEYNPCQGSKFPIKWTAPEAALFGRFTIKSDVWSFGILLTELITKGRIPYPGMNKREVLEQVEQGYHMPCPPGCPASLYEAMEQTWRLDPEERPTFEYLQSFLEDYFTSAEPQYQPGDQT

GSK3β(h) = target: T5, GSK3β(h) (Homo sapiens, UniProt P49841)
T5 construct: purchased Millipore KinaseProfiler
T5 sequence (P49841 whole entry): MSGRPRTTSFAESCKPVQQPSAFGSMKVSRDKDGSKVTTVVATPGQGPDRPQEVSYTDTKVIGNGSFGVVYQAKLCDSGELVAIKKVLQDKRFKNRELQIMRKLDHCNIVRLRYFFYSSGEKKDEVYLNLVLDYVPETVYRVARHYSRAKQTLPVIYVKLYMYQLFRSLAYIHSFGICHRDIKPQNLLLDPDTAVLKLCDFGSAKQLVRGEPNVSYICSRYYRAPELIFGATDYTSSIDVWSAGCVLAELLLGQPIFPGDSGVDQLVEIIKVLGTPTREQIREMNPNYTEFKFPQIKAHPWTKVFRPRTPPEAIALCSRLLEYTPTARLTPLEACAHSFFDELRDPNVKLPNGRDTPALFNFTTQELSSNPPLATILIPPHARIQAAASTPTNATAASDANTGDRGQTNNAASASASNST

JAK2(h) = target: T6, JAK2(h) (Homo sapiens, UniProt O60674)
T6 construct: purchased Millipore KinaseProfiler

MKK6(h) = target: T7, MKK6(h) (Homo sapiens, UniProt P52564)
T7 construct: purchased Millipore KinaseProfiler
T7 sequence (P52564 1-334): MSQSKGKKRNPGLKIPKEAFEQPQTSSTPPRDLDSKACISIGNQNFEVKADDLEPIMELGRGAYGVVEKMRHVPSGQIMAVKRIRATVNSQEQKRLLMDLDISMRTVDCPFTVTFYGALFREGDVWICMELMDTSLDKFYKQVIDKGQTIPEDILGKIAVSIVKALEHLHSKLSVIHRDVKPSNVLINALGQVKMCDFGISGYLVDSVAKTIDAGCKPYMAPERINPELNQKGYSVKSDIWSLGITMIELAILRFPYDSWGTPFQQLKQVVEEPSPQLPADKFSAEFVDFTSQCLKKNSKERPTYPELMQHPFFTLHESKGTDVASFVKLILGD

MRCKβ(h) = target: T8, MRCKβ(h) (Homo sapiens, UniProt Q9Y5S2)
T8 construct: purchased Millipore KinaseProfiler

MST1(h) = target: T9, MST1(h) (Homo sapiens, UniProt Q13043)
T9 construct: purchased Millipore KinaseProfiler
T9 sequence (Q13043 1-487): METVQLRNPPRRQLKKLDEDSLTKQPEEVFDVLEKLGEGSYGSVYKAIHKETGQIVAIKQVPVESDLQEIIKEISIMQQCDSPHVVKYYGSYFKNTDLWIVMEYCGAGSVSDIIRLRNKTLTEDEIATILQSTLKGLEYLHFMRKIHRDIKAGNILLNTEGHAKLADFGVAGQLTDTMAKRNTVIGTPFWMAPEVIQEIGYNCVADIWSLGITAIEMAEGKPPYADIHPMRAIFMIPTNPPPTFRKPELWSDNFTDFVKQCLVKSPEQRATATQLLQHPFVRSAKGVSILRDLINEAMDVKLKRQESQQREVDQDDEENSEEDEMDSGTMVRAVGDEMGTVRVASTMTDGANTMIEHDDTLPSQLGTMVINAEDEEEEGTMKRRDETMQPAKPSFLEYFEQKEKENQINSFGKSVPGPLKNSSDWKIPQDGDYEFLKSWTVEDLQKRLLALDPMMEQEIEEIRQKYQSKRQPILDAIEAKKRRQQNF

PDGFRα(h) = target: T10, PDGFRα(h) (Homo sapiens, UniProt P16234)
T10 construct: purchased Millipore KinaseProfiler

Ret(h) = target: T11, Ret(h) (Homo sapiens, UniProt P07949)
T11 construct: purchased Millipore KinaseProfiler
T11 sequence (P07949 29-1114): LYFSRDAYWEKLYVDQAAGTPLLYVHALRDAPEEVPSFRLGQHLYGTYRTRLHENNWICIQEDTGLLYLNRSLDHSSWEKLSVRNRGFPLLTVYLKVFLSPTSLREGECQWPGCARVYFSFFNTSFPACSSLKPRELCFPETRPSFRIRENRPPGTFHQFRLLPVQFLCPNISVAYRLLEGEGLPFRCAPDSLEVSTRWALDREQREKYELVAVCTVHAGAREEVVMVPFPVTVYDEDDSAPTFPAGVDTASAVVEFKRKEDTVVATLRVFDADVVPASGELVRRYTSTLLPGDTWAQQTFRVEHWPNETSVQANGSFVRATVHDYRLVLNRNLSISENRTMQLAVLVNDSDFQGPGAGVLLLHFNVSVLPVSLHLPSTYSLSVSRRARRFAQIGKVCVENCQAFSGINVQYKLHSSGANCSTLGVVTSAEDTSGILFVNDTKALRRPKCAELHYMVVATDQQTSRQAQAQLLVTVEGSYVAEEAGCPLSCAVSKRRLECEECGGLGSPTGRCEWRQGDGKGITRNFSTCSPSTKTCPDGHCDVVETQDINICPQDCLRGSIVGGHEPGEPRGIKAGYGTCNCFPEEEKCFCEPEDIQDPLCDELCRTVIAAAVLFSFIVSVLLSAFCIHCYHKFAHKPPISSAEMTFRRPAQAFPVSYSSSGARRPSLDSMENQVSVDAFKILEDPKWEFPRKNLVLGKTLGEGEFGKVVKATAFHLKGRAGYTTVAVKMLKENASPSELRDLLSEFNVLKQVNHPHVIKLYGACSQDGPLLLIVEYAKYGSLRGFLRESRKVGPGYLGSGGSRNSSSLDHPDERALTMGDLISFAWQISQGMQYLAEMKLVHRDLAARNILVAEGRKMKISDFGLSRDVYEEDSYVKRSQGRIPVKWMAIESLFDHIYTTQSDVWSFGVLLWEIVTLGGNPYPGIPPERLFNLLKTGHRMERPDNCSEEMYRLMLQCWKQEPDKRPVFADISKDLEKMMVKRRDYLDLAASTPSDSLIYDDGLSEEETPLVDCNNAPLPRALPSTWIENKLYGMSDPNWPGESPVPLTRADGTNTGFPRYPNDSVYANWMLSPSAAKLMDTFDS

Ret(V804M)(h) = target: T12, Ret(V804M)(h) (Homo sapiens, UniProt P07949, V804M)
T12 construct: purchased Millipore KinaseProfiler
T12 sequence (P07949 29-1114 V804M): as the sequence (P07949 29-1114) above, with V776M counted along it

Ros(h) = target: T13, Ros(h) (Homo sapiens, UniProt P08922)
T13 construct: purchased Millipore KinaseProfiler

WNK2(h) = target: T14, WNK2(h) (Homo sapiens, UniProt Q9Y3S1)
T14 construct: purchased Millipore KinaseProfiler
T14 sequence (Q9Y3S1 whole entry): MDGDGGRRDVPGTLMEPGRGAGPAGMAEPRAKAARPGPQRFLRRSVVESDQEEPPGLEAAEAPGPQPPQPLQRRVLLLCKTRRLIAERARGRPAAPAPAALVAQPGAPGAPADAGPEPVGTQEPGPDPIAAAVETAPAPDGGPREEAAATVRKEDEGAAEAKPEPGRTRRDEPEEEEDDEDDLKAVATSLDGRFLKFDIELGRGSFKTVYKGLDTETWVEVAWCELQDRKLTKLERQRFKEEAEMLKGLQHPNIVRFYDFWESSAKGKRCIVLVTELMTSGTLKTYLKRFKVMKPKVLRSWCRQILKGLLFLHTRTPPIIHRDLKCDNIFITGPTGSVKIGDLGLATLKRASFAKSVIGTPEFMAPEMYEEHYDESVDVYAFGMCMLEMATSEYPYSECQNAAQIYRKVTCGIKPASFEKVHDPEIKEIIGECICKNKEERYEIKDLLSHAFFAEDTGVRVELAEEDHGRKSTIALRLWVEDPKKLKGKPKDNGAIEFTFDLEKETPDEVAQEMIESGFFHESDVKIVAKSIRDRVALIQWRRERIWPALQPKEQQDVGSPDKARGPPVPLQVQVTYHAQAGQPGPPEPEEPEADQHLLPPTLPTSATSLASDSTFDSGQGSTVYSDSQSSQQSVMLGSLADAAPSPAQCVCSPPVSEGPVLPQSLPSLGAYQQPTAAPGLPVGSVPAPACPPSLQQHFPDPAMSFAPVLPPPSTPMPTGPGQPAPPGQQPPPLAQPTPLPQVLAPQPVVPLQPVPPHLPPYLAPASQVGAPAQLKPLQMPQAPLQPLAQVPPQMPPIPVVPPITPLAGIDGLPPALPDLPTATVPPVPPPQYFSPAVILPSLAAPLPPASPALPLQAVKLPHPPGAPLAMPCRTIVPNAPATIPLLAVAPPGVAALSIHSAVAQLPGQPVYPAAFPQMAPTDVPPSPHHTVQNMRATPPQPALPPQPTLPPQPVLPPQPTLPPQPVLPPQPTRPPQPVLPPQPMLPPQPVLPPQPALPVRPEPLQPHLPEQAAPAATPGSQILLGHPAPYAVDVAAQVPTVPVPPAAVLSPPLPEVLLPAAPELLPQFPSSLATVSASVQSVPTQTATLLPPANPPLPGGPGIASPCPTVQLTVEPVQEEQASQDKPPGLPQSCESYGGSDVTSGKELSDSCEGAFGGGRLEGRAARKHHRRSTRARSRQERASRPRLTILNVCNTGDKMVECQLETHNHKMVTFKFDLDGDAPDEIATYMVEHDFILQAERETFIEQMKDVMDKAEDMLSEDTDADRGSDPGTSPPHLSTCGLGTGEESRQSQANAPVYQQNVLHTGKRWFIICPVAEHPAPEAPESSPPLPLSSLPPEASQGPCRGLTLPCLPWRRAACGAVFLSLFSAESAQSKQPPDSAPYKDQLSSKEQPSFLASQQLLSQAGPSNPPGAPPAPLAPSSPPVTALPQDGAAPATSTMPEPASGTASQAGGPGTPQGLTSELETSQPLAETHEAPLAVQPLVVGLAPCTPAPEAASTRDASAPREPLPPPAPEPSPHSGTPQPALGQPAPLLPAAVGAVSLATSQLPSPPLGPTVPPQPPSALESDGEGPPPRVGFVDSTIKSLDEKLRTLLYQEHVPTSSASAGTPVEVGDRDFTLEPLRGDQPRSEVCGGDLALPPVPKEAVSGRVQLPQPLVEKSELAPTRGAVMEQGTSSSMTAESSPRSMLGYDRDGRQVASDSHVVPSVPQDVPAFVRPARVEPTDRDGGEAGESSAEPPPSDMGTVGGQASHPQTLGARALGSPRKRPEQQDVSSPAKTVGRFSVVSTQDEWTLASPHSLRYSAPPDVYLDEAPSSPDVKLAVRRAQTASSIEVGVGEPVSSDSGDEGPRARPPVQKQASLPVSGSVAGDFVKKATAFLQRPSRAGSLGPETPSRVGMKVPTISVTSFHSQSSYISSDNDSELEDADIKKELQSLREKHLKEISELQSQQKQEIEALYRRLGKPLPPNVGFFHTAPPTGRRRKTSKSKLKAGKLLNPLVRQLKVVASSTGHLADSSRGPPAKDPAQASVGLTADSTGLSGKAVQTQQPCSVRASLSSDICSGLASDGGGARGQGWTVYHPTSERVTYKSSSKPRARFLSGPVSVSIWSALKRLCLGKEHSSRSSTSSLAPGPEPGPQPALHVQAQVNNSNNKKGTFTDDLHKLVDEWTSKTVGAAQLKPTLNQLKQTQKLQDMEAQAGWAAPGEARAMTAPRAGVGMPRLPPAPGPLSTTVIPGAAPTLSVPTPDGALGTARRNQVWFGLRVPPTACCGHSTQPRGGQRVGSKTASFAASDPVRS

T1 sequence (P16277 2-499 limits assumed): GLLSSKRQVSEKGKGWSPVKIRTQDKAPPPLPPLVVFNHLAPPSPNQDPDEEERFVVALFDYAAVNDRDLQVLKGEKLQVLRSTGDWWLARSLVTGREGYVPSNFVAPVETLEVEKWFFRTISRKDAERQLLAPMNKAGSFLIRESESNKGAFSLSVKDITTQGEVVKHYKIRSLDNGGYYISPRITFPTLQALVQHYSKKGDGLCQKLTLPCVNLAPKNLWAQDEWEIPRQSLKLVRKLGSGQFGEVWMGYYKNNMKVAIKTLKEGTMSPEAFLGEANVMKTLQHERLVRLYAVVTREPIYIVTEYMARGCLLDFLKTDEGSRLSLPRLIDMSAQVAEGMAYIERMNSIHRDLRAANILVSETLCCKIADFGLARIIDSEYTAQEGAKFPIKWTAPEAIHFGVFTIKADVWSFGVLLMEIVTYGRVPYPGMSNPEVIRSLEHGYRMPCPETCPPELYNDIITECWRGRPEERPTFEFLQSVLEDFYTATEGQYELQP

In the case of `Cn1ncc(Cl)c1-c1cc(C(=O)N[C@H](CN)Cc2cccc(F)c2)sc1Cl` [GSK2110183], the inhibition at 0.5 µM (Blk(m)) is reported as -12%, the inhibition at 10 µM (Blk(m)) is reported as 9% and the inhibition at 0.5 µM (Bmx(h)) is reported as -2%. It also gave an inhibition at 10 µM (Bmx(h)) of 18%, an inhibition at 0.5 µM (DRAK1(h)) of 10% and an inhibition at 10 µM (DRAK1(h)) of 40%. It also gave an inhibition at 0.5 µM (Fgr(h)) of 3%, an inhibition at 10 µM (Fgr(h)) of 45% and an inhibition at 0.5 µM (GSK3β(h)) of 4%. It also gave an inhibition at 10 µM (GSK3β(h)) of 5%, an inhibition at 0.5 µM (JAK2(h)) of -31% and an inhibition at 10 µM (JAK2(h)) of -55%. For the same compound, the inhibition at 0.5 µM (MKK6(h)) was 6%, the inhibition at 10 µM (MKK6(h)) was 36% and the inhibition at 0.5 µM (MRCKβ(h)) was -4%. It also gave an inhibition at 10 µM (MRCKβ(h)) of 11%, an inhibition at 0.5 µM (MST1(h)) of -2% and an inhibition at 10 µM (MST1(h)) of 19%. It also gave an inhibition at 0.5 µM (PDGFRα(h)) of -2%, an inhibition at 10 µM (PDGFRα(h)) of -2% and an inhibition at 0.5 µM (Ret(h)) of 4%. The inhibition at 10 µM (Ret(h)) was 14%, the inhibition at 0.5 µM (Ret(V804M)(h)) was 5% and the inhibition at 10 µM (Ret(V804M)(h)) was 26%. The inhibition at 0.5 µM (Ros(h)) was -10%, the inhibition at 10 µM (Ros(h)) was -10% and the inhibition at 0.5 µM (WNK2(h)) was 1%. For the same compound, the inhibition at 10 µM (WNK2(h)) was 26%.

Work on `Cn1ncc(Cl)c1-c1cc(C(=O)N[C@H](CN)Cc2ccc(F)c(F)c2)oc1Cl` [GSK2141795] yielded an inhibition at 0.5 µM (Blk(m); 0.5 µM, read-out: % Inhibition) of -35%, an inhibition at 10 µM (Blk(m); 10 µM, read-out: % Inhibition) of 8% and an inhibition at 0.5 µM (Bmx(h); 0.5 µM, read-out: % Inhibition) of -6%. It also gave an inhibition at 10 µM (Bmx(h); 10 µM, read-out: % Inhibition) of 21%, an inhibition at 0.5 µM (DRAK1(h); 0.5 µM, read-out: % Inhibition) of -18% and an inhibition at 10 µM (DRAK1(h); 10 µM, read-out: % Inhibition) of 24%. The inhibition at 0.5 µM (Fgr(h); 0.5 µM, read-out: % Inhibition) was 2%, the inhibition at 10 µM (Fgr(h); 10 µM, read-out: % Inhibition) was 68% and the inhibition at 0.5 µM (GSK3β(h); 0.5 µM, read-out: % Inhibition) was -8%. For the same compound, the inhibition at 10 µM (GSK3β(h); 10 µM, read-out: % Inhibition) was -13%, the inhibition at 0.5 µM (JAK2(h); 0.5 µM, read-out: % Inhibition) was -13% and the inhibition at 10 µM (JAK2(h); 10 µM, read-out: % Inhibition) was -27%. It also gave an inhibition at 0.5 µM (MKK6(h); 0.5 µM, read-out: % Inhibition) of 14%, an inhibition at 10 µM (MKK6(h); 10 µM, read-out: % Inhibition) of 66% and an inhibition at 0.5 µM (MRCKβ(h); 0.5 µM, read-out: % Inhibition) of -8%. It also gave an inhibition at 10 µM (MRCKβ(h); 10 µM, read-out: % Inhibition) of 3%, an inhibition at 0.5 µM (MST1(h); 0.5 µM, read-out: % Inhibition) of -10% and an inhibition at 10 µM (MST1(h); 10 µM, read-out: % Inhibition) of 25%. It also gave an inhibition at 0.5 µM (PDGFRα(h); 0.5 µM, read-out: % Inhibition) of -4%, an inhibition at 10 µM (PDGFRα(h); 10 µM, read-out: % Inhibition) of -4% and an inhibition at 0.5 µM (Ret(h); 0.5 µM, read-out: % Inhibition) of -19%. The inhibition at 10 µM (Ret(h); 10 µM, read-out: % Inhibition) was 31%, the inhibition at 0.5 µM (Ret(V804M)(h); 0.5 µM, read-out: % Inhibition) was -2% and the inhibition at 10 µM (Ret(V804M)(h); 10 µM, read-out: % Inhibition) was 25%. It also gave an inhibition at 0.5 µM (Ros(h); 0.5 µM, read-out: % Inhibition) of 0%, an inhibition at 10 µM (Ros(h); 10 µM, read-out: % Inhibition) of 5% and an inhibition at 0.5 µM (WNK2(h); 0.5 µM, read-out: % Inhibition) of -12%. For the same compound, the inhibition at 10 µM (WNK2(h); 10 µM, read-out: % Inhibition) was 3%.
